Consider six compounds from patent US20060079497A1, “Lavendamycin analogues and methods of synthesizing and using lavendamycin analogues” (Ball State University, priority 2004, published 2006).

A short description of data set [1]: Cytotoxicity assay (MTT), normal murine spleen cells stimulated with concanavalin A. Format: cell-based. Particulars: normal mouse spleen stimulated with concanavalin A inhibited by 50%, read-out: Mean CC50 (Normal Mouse Spleen) ± SEM (no. of expts). As for the experimental part:
(§1) Normal murine spleen cells were washed in HBSS, cultured at 2.5×10^6 or 5×10^6 cells per mL in RPMI 1640 (with Hepes) complete medium with 2 mM-L-glutamine, 1 mM sodium pyruvate, 0.05 mM β-mercaptoethanol, penicillin, streptomycin, and amphotericin B with 10% fetal calf serum and Concanavalin A (ConA) at 2.5 μg/mL in a 96-well microtiter plate. A range of diluted analogs were added to triplicate culture wells and the cells were incubated at 37° C. in 5% CO2. Wells containing cells, media and ConA were used as controls. Forty-eight hours post incubation, 20 μL of the vital dye MTT (3-[4,5-Dimethylthiazol-2-yl]-2,5-diphenyltetrazolium bromide; thiazolyl blue) at 5 mg/mL was added to each well and the cultures re-incubated for 4-6 hours. Following centrifugation, the supernatants were decanted and the stained cells were resuspended in 100 μL of 0.4% HCl acidified isopropanol. The optical densities of each well were read at 600 nm using a Cambridge Technologies series 700 microplate reader. The human lymphocytic cell lines CCRF-CEM (ATCC: HTB 176) and H-9 (ATCC: CCL 119) were subcultured from recently cultured cells grown in complete RPMI 1640 medium as described above but without the β-mercaptoethanol and ConA at 6.25×10^5 and 2×10^6 per mL in a 96 well culture plate. These cell numbers represented log phase and early stationary phase of the freshly cultured cells. As these cell lines rapidly reproduce without mitogenic stimulation, Con A was not used. A range of analogues or media alone was added in triplicate to the cultures and the cultures incubated, pulsed with MTT, harvested and their growth estimated as described above for the murine cultures. The CC50 or the concentration of drug which inhibited cell growth as estimated by MTT formazan production to 50% of that of untreated control cells was determined by linear interpolation for each lavendamycin analog.

The nature of data set [2]: Cytotoxicity assay (MTT), human lymphocytic cell lines, pooled data. It counts as cell-based. As to conditions: H-9 and CEM inhibited by 50%, read-out: Mean CC50 (Human Cell Lines) ± SEM (no. of expts). The method, then: as §1
Data set [3] addresses T1, HIV reverse transcriptase (HIV-RT) (Human immunodeficiency virus type 1 group M subtype B, UniProt P04585).
T1 construct: 1 unit/mL of HIV-RT (Worthington Biochemical Corp., Freehold, N.J.); purchased Worthington Biochemical Corp., Freehold, N.J
In words: HIV-RT assay (3H-TTP incorporation, modified assay of Okada et al.). It counts as biochemical. As for the experimental part:
Briefly, the analogues were initially dissolved in either DMSO or HEPES buffer (pH 7.2) and then diluted to the appropriate concentration before addition to the assay mixtures. […] Several control wells without any inhibitors were also included on each microtiter plate. The reactions were allowed to proceed for 1 h at 37° C. […] A more detailed description of reaction conditions is provided below in the Examples. The concentration of drug which inhibited 50% of the enzyme activity (IC50) was determined by using the computer software program Calcusyn, which plots the dose-effect curves from the inhibition data and calculates the IC50 for each drug.
The assay procedure described below is adapted from Okada et al. (Okada, H.; Mukai, H.; Inouye, Y; Nakamura, S. “Biological Properties of Streptonigrin Derivatives II. Inhibition of Reverse Transcriptase Activity,” J. Antibiot., 1986, 39, 306-308). The lavendamycin analogs were initially dissolved in DMSO at a concentration of 1 mg/mL. Occasionally, mild sonication and heat were used to dissolve the less soluble compounds. The dissolved analogs were then serially diluted in distilled water to achieve concentrations in the final reaction mixture ranging from 0.5-15 μM. In addition to the lavendamycin analogs, the final reaction mixture contained 100 mM Tris-HCl (pH 8.0), 5 mM MgCl2, 5 mM dithiothreitol, 60 mM NaCl, 0.2 mM [^3H] thymidine triphosphate(5 μCi well), 4 μg/mL poly (rA)-oligo(dT)12-18 (Amersham Pharmacia Biotech, Piscataway, N.J.) and 1 unit/mL of HIV-RT (Worthington Biochemical Corp., Freehold, N.J.) in a total volume of 300 μL. For each assay, the reaction mixture containing 8× buffer, double distilled H2O, ^3HTTP, template-primer and HIV-RT was pre-mixed in a 15-mL sterile tube in quantities required for the particular experiment. After adding the enzyme, the reaction mixture was mixed and kept on ice. The inhibitors, either AZT(Moravek Biochemicals, Brea, Calif.), analogs or both were added to appropriate wells in a 24 well microtiter plate and ddH2O was added to each well to bring the volume of all test wells to 100 μL. Two hundred μL of the chilled reaction mixture was then added to each of the test wells, mixed, and incubated for 1 hr at 37° C. Several control wells with no inhibitors were included on each test plate. After stopping the reactions with 25 μL 0.1 M EDTA, triplicate samples of 15 μL from each test well were spotted on DE81 ion exchange filter paper squares (Whatman Paper, Maidstone, England). After drying, each filter was washed for 10 minutes three times with 5% TCA-NHPO4, three times with 0.6M NaCl-[…] Na Citrate, one time with ddH2O and one time with 95% ethanol. After drying the individual filter papers were added to 5 mL Scintiverse E (Fisher Scientific, Chicago, Ill.) scintillation fluid and the amount of 3H-TTP uptake measured as counts per minute on a Beckman liquid scintillation counter. […] The results were then analyzed using Calcusyn, a windows software program for dose effect analysis designed by T. -C. Chou and M. P. Hayball and published by Biosoft® (UK).

The mark [4] stands for this setting: 50% inhibition of HIV RT activity toward 1 unit of enzyme, read-out: Mean IC50 ± SEM (no. of expts).
Where [5] appears, read: normal murine spleen cells stimulated with concanavalin A.
Where [6] appears, read: human lymphocytic cell lines CCRF-CEM and H-9, pooled data.
Setting [7] is: Mean IC50 ± SEM (no. of expts), 50% inhibition of HIV RT activity toward 1 unit of enzyme.

The structures appear in SMILES notation. “And” between values parts separate entries of the source, which are not always exact repeats. Equal values may be shown once. Read-outs that look alike come from different tables or passages of the source. Bounds are passed on as bounds.

In general, CC50 refers to the concentration that lowers cell viability or growth by half. What is called IC50 is the point on the concentration scale where inhibition reaches its midpoint. As for `CCCCCCCCOC(=O)c1cc2c([nH]c3ccccc32)c(-c2ccc3c(n2)C(=O)C(N)=CC3=O)n1` [Compound 20, Demethyllavendamycin n-Octyl Ester], the CC50 at 48 h stood at 48 ± 10 µM in data set [1] and 47 ± 14 µM in data set [2]. Also, the IC50 in data set [3] (setting [4]) is 7.1 ± 2.7 µM; in data set [3] (read-out: IC50 against HIV-RT), below 8 µM.

Consider `COC(=O)c1nc(-c2ccc3c(n2)C(=O)C(NC(C)=O)=CC3=O)c2[nH]c3ccccc3c2c1C` [Compound 11, 7-acetyllavendamycin methyl ester], for which the CC50 at 48 h in data set [1] (setting [5]) worked out at 62 ± 5 µM; in data set [2] (setting [6]), 31 ± 2 µM. Besides, in data set [3] (setting [7]), the IC50 came out at 15.1 ± 5.9 µM.

Consider `CCCCOC(=O)c1cc2c([nH]c3ccccc32)c(-c2ccc3c(n2)C(=O)C(NC(=O)CCC)=CC3=O)n1` [Compound 12, 7-N-n-Butyryidemethyllavendamycin n-Butyl Ester], for which the CC50 at 48 h in data set [1] turned out to be 81 ± 17 µM; in data set [2], 50 ± 15 µM. Further, the IC50 in data set [3] (setting [4]) is 5.8 ± 1.5 µM; in data set [3] (read-out: IC50 against HIV-RT), below 8 µM.

`CC(=O)NC1=CC(=O)c2ccc(-c3nc(C(=O)O)cc4c3[nH]c3ccccc34)nc2C1=O` [Compound 18, 7-N-Acetyldemethyllavendamycin]: the figures for the CC50 at 48 h in data set [1] (setting [5]) and in data set [2] (setting [6]) were 47 ± 8.5 µM and 81 ± 35 µM, respectively. Moreover, half-maximal inhibition in data set [3] (setting [7]) (IC50) required 13.3 ± 4.4 µM.

Usually inhibition stands for the change of the read-out against control, counted positive when it falls. Regarding `CC(=O)NC1=CC(=O)c2ccc(-c3nc(C(=O)OCCOP(=O)(O)O)cc4c3[nH]c3ccccc34)nc2C1=O` [Compound 19], the CC50 at 48 h is 29 ± 5 µM in data set [1] (setting [5]) and 27 ± 3 µM in data set [2] (setting [6]). Moreover, in data set [3] (15 μM), the inhibition at 15 µM is above 92%. Moreover, in data set [3] (IC50 against HIV-RT), the IC50 is < 8 µM and 3 µM.

Turning to `CC(=O)NC1=CC(=O)c2ccc(-c3nc(C(N)=O)cc4c3[nH]c3ccccc34)nc2C1=O` [Compound 16, 7-N-Acetyldemethyllavendamycin Amide], the figures for the CC50 at 48 h in data set [1] (setting [5]) and in data set [2] (setting [6]) were 50 ± 7 µM and 95 ± 45 µM, respectively. In addition, the IC50 in data set [3] (setting [7]) was 12.7 ± 5.2 µM.
